Two compounds from patent US20080118494A1, “Compositions For Detection Of Latent Hiv Reactivation And Methods Of Using The Same” (priority 2004, published 2008) can be followed below.

For test [1], the system named is latent HIV-1 infection in human thymocytes derived from SCID-hu (Thy/liv) mice. Kind of test: Ex vivo reactivation of latent HIV-1 in thymocytes from infected SCID-hu (Thy/Liv) mice, EYFP flow cytometry. In kind it is cell-based. Particulars: for EYFP+ cells: 24 h after depletion of EYFP+ cells, untreated 50; for induction of latent HIV-1 expression in thymocytes: range among tissue samples of four animals. The procedure: SCID-hu (Thy/liv) mice were infected with HIV-1 NLENY1-IRES, and thymocytes were isolated 2-4 weeks following infection. Cells were cultured for two days in the presence of AZT and indinavir to stop de novo infection and then subjected to fluorescence activated cell sorting to remove all EYFP^+ cells. Immediately following cell separation, the cells were seeded at a concentration of 1×10^6 cell/ml, cultured in supplemented RPMI 1640 to determine levels of spontaneous reactivation, stimulated with PMA, TNF-α, activating anti-CD28 antibody (clone 5D10) and the […] sodium butyrate (NaBu; two animals only). Levels of reactivation achieved in HIV-1 infected thymocytes derived from 4 different SCID-hu (Thy/liv) mice following ex vivo reactivation with the indicated stimulators are depicted as fold induction of […].
Isolation of thymocytes from SCID-hu (Thy/Liv) mice. Thy/Liv implants from the infected mice were harvested 2-4 weeks post infection and single cell suspensions generated by dissociation of the tissue. Thymocytes were isolated by Ficoll-Paque density gradient centrifugation and were cultured for two days in RPMI 1640 supplemented with 10% heat-inactivated FBS, 2 mM L-glutamine, 100 U/ml of penicillin, and 100 μg/ml of streptomycin, in the presence of indinavir and AZT, to inhibit de novo infection. Productively infected thymocytes, which expressed EYFP, were then removed from the cultures by FACS sorting. Purity of the resulting EYFP-negative cell population was determined by flow cytometric analysis for EYFP and was usually greater than 99.9%. Immediately following the sort, cells were stimulated. HIV-1 reactivation, as indicated by the de novo expression of EYFP was quantified by flow cytometry, acquiring at least 1×10^6 cells per sample in the live gate.
Reactivation of latent HIV-1 infection by anti-CD28 antibodies in human thymocytes derived from SCID-hu (Thy/liv) mice. Whether activating anti-CD28 antibody would also reactivate latent HIV-1 in a system where latency in primary cells was achieved under in vivo conditions was tested. For this purpose, a modification of the HIV-1 established SCID-hu (Thy/Liv) mouse system was used that has been previously used for the study of HIV-1 latency. Brooks et al., Nat. Med. 7:459-464 (2001). SCID-hu (Thy/Liv) mice were infected with HIV-1 NLENY1-IRES to allow for the easy and direct detection of infected cells using flow cytometry. Levy et al., Proc. Nat. Acad. Sci. 101:4204-4209 (2004). […] Levels of infection were determined by flow cytometry for EYFP, and varied in the different animals between 0.5 and 6% of the total thymocyte population. […] The cultures were then subjected to fluorescence activated cell sorting to remove all EYFP positive cells. […]

The subject of test [2] is latent HIV-1 infection in bulk population of latently infected JLTRG cells. The test is described as follows: Reactivation of latent HIV-1 in a bulk population of latently infected cells, flow cytometry. Particulars: optimal concentration of each compound, day 57 bulk population, 100,000 viable cells counted. In kind it is cell-based. The method, then:
(A) Jurkat cells were infected with an EGFP expressing, replication incompetent reporter virus and the level of productive HIV-1 infection at each indicated time-point was directly assessed by flow cytometric analysis for EGFP expression (untreated; black circles). Levels of initial non-productive and later on latent HIV-1 infection was determined 24 hours following TNF-α stimulation (black squares). The results represent the mean ±S.D. of three independent experiments.
a) Quantification of the HIV-1 reactivating capabilities of test compounds. Following infection, HIV-1 integrates into the cellular genome. Integration is random, although HIV-1 preferentially integrates into euchromatin structures. Latency development can be thus influenced by a multitude of factors that alter gene expression or DNA structure, such as divergent gene expression patterns or the cell cycle stage at the time point of viral integration. Although the reporter cell lines are representative for the majority of latently infected cells and reliably identify most reactivating agents during the screening effort, they can not allow quantification of the capability of the individual compounds to reactivate HIV-1 infection from a diverse population of latently infected cells. To account for the influence that the side of integration of a latent virus can have on a compounds ability to reactivate the virus, a bulk population of latently infected cells (FIG. 7) was established. Following infection of JLTRG cells with HIV-1 NL43, a rapid increase of the level of infection can be observed. On day 3, an average 27% of the cells were productively infected. […] Until day 15, the percentage of productively infected cells rapidly declined to 3% of the overall cell population. At this time point, an additional 5% of the cells were non-productively infected. […] Since 1×10^6 cells were initially infected, and virus mediated inhibition of cell proliferation influences the relative level of infection over time can be excluded, it can be calculated that the latently infected cell population should consist of […] individual latently infected cells. This bulk population of cells allows quantification of the capability of the respective compounds to reactivate latent HIV-1. […] Each compound was titrated over a two-log concentration range to allow for optimal reactivation. The results for the optimal concentration of each compound are depicted in FIG. 7B. […] TNF-α (10 ng/ml) reactivated latent HIV-1 infection in 5% of the cells, whereas the DNA histone deacetylase inhibitors trichostatin A (TSA) and sodium butyrate (NaBu) reactivated latent HIV-1 infection in only 3% or 2.5% of the cells, respectively. To achieve an accurate estimate of the differences in the capability of different agents to reactivate HIV-1 infection it is important to run a sufficiently high number of cells. For this flow cytometry based analysis, 100,000 cells viable per sample were counted.
Background: A flow cytometer gives signals particle by particle.

As to `CCCCCCCCCCCCCC(=O)O[C@@H]1[C@@H](C)[C@@]2(O)[C@@H](C=C(CO)C[C@]3(O)C(=O)C(C)=C[C@@H]23)[C@@H]2C(C)(C)[C@]12OC(C)=O` [PMA, 13-phorbol-12-myristate acetate], in test [1], the “EYFP+ cells” value is given as 260 cells of 1×10^6 cells and the “induction of latent HIV-1 expression in thymocytes” value is 2.5-7 fold. In addition, in test [2], the “cells in which latent HIV-1 infection was reactivated” value was found to be 7%.
With TNF-α, in test [1], the “EYFP+ cells” value is listed as 250 cells of 1×10^6 cells and the “induction of latent HIV-1 expression in thymocytes” value is reported as 3-6 fold. Moreover, in test [2], the “cells in which latent HIV-1 infection was reactivated” value is 5%.
